Data on ten compounds can be found in ChEMBL document CHEMBL4229326, “Modulators of 14-3-3 Protein-Protein Interactions” (J Med Chem, 2018).

One assay concerns DG-75. Description: Growth inhibition of human DG75 cells after 48 hrs by trypan blue exclusion method. The class given is functional, cell-based. Particulars: DG-75, 48 h.
Assay [1] addresses T1, 14-3-3 protein zeta/delta (Homo sapiens, UniProt P63104).
T1 sequence (P63104 whole entry): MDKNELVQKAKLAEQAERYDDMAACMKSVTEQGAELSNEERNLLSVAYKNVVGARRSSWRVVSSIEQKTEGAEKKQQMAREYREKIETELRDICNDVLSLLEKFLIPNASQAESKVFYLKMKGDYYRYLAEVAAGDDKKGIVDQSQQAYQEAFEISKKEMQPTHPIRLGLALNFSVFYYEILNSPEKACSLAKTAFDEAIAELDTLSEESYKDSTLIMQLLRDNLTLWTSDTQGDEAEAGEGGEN
The assay is described as follows: Binding affinity to recombinant human His-tagged 14-3-3zeta expressed in Escherichia coli K12 by ITC method.

Another assay concerns the target T2, 14-3-3 protein gamma (Homo sapiens, UniProt P61981).
T2 sequence (P61981 whole entry): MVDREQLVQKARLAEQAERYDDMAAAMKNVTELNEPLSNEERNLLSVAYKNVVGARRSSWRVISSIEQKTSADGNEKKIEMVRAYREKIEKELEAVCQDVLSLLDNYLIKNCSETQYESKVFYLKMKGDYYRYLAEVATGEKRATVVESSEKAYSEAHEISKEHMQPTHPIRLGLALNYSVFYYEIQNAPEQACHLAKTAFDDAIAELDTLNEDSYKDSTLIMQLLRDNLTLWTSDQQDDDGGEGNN
Description: Binding affinity to GST-tagged 14-3-3-gamma (unknown origin) expressed in Escherichia coli BL21(DE3) assessed as inhibition of interaction with PRAS40 in African green monkey COS7 cells preincubated with protein followed by cell addition by ELISA.

In assay [2] the target is Potassium channel subfamily K member 9 (Homo sapiens) (UniProt Q9NPC2). The assay is described as follows: Stabilization of human HA-tagged TASK-3 interaction with 14-3-3 in Xenopus laevis oocytes assessed as increase of TASK-3 expression in plasma membrane at 10 uM by antibody-based luminometric assay relative to control. The class given is cell-based.
The next assay has as its target T3, 14-3-3 protein sigma (Homo sapiens, UniProt P31947).
T3 sequence (P31947 whole entry): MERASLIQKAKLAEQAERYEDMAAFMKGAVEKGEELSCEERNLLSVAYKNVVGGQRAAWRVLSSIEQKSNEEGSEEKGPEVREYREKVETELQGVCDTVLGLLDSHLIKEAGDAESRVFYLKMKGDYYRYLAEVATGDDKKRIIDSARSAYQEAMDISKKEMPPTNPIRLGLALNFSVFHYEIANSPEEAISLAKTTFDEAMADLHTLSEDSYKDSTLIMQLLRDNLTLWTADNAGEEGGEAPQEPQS
The assay is described as follows: Inhibition of TMR-GG-RLSHpSSLPG-NH2 binding to recombinant human GST-tagged 14-3-3-sigma preincubated for 30 mins followed by TMR-GG-RLSHpSSLPG-NH2 addition and measured after 60 mins by fluorescence polarization assay.

Assay [3] deals with T1, 14-3-3 protein zeta/delta. The assay is described as follows: Binding affinity to human full length 14-3-3zeta by fluorescence polarization assay.

Chain of Potassium channel subfamily K member 9 (Homo sapiens) (Q9NPC2 whole entry): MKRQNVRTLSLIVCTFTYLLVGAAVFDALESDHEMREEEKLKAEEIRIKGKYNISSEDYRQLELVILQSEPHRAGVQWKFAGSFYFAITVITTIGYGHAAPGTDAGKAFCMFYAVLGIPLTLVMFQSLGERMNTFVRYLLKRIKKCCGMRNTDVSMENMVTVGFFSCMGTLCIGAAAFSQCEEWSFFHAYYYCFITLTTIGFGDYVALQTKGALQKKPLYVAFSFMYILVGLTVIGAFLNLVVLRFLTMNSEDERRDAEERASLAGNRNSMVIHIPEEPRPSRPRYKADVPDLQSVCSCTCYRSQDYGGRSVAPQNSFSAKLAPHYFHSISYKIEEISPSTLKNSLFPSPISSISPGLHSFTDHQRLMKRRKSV

`CN(CCCCCl)P(=O)(OCc1ccc([N+](=O)[O-])o1)C(F)(F)C[C@H](NC(=O)CNC(=O)c1ccc(N)cc1)C(=O)NCCc1ccc(O)cc1` (stereo not given in full): it took 5 µM to reach half-maximal inhibition in the assay on DG-75 (IC50).
`COC[C@H]1CC[C@@H]2/C1=C\[C@]1(C)C(=C([C@H](C)COC(C)=O)CC1OCc1ccccc1/C=N/OC[C@@H](NC(=O)[C@H](CC(=O)O)NC(=O)[C@H](Cc1ccc(O)cc1)NC(=O)[C@H](CO)NC(=O)[C@H](CCC(N)=O)NC(=O)CNS(=O)(=O)c1cccc3c(N(C)C)cccc13)C(C)C)[C@@H](O)[C@H](O)[C@@H]2C` (stereo not given in full): the Kd in assay [1] was determined as 0.37 µM.
Consider `Cc1nc(/N=N/c2ccc(C(=O)O)cc2)c(COP(=O)(O)O)c(C=O)c1O`, for which the IC50 at 14-3-3 protein gamma was found to be 16.4 µM.
`COC[C@H]1CC[C@@H]2/C1=C\[C@]1(C)C(=C(C(C)C)[C@@H]3CCO[C@@H]31)[C@@H](O[C@H]1C[C@@H]3COC(C)(C)O[C@H]3[C@H](O)[C@H]1O)[C@H](O)[C@@H]2C`: the Activity in assay [2] is 45%.
Take `CC(C)=CC(=O)N[C@@H](COP(=O)(O)O)C(=O)NCc1ccc2c(c1)OCO2`: on 14-3-3 protein sigma, the half-maximal inhibitory concentration (IC50) was in the range of 2.6 to 3.6 µM.
Same read-out and setting: under `O=C(CNC(=O)c1ccc(CCl)cc1)N[C@@H](COP(=O)(O)O)C(=O)NCCc1ccc(O)cc1` stands 2.6 to 3.6 µM.
In assay [3], `CC(C)C[C@H](NC(=O)[C@H](CC(=O)O)NC(=O)[C@]1(C)CCCCCCCCCCCC[C@](C)(NC(=O)CNC(=O)[C@@H](N)CCC(N)=O)C(=O)N[C@@H](CC(C)C)C(=O)N[C@@H](CC(=O)O)C(=O)N[C@@H](C)C(=O)N1)C(=O)N[C@@H](C)C(=O)N[C@@H](CO)C(=O)O` displayed an equilibrium dissociation constant (Kd) of 0.041 µM.
On to `CC(C)=CC(=O)N[C@@H](COP(=O)(O)O)C(=O)NCCc1ccc(O)cc1`, for which the half-inhibitory concentration (IC50) at 14-3-3 protein sigma fell in the range of 2.6 to 3.6 µM.
Take `[N-]=[N+]=Nc1ccc(C(=O)NCC(=O)N[C@@H](COP(=O)(O)O)C(=O)NCCc2ccc(O)cc2)cc1`: at 14-3-3 protein sigma, the half-maximal inhibitory concentration (IC50) lay in the range of 2.6 to 3.6 µM.
On the same count and under the same terms, under `O=C(CNC(=O)c1ccc(CCl)cc1)N[C@@H](COP(=O)(O)O)C(=O)NCc1ccc2c(c1)OCO2` stands 2.6 to 3.6 µM.
